SMILES strings stand for the structures.

This data set is described as follows: Preliminary pharmacokinetic study, plasma concentration by RP-HPLC-fluorescence. The data set is classed as in vivo, C57BL/6 mice. To be noted: for desired plasma concentration (10 μM) reached: dose 0.5 mg/mouse, desired ~2 μg/mL for scoparone, ~3 μg/mL for 50. The text has this:
S23 Preliminary pharmacokinetic studies of scoparone and 6,7-diprenoxycoumarin
Table S1 Blood concentration of scoparone. mouse Dose given (mg) Body weight (g) Time (min) Cal. Conc. (µg/ml) […]
Table S2 Blood concentration of 6,7-diprenoxycoumarin.
Adopt previous study on fraxetin (unpublished result) , a coumarin compound, RP -HPLC -fluorescence method (excitation 380 nm and emission 480 nm ) was applied on analysis of the concentration of scoparone and 6,7 -diprenoxycoumarin. […]
without interference with endogenous plasma constituents. […]
retention time of approximately 7.51 in mouse plasma.
0.01 to 10.00 µg/ml for scoparone and 0.025 to 6.25 µg/ml for 6,7 -diprenoxycoumarin. The relativ e error and coefficient of variance are all below 15 %. The LOQ were 0.01 and 0.005 µg/ml for scoparone and 6,7 - diprenoxycoumarin. Linearity over the investigated concentration was obtained.
After method validation, C57BL/6 mice were given scoparone (i.p.) or 6,7 -diprenoxycoumarin and plasma […]
In pharmacological assay, the desired scoparone […]
the amount of drug increased to 0.5 mg/mice. Thus, the CAR activating effect may not be seen in vivo, which can account for no blood sugar lowering effects of 6,7-diprenoxycoumarin in vivo.
Acetonitrile HPLC-grade (LiChrosolv® ) were purchased from Sigma-Aldrich Chemie GmbH. Deionized water was purified on a Milli-Q system. Scoparone and 6,7-diprenoxycoumarin were synthesized from our […]
lab and purity was > 95 % from HPLC-UV method.
Instrumentation and Chromatographic Condition
Hitachi L-7100 liquid chromatography system (Hitachi, Japan) comprised a Hitachi D-7000 interface, a Hitachi L-7200 auto sampler, a Hitachi L-7400 UV detector and a Hitachi L-2480 FL detector. The HPLC colum consisted of a Thermo Hypurity® RP-18 column (200 × 4.6 mm, 5 µm) connected to a Hichrom ODS guard column. The isocratic elution was applied for scoparone (ACN-H2O = 3:7) and 6,7-diprenoxycoumarin (ACN-H2O = 7:3). The flow rate was set at 1.0 ml/min. The detection fluorescence was set at excitation 380 nm and emission 480 nm. A volume of 20 µL of sample was subjected to HPLC for […]
Animals and Sample Preparation
Eight-week old male or female C57/BL6 mice were acquired from BioLASCO Taiwan Co., Ltd. Experimental animals were allowed to acclimate to the controlled photoperiod (a cycle of 12-hr light/ 12-hr dark), humidity (40-60% relative humidity) and temperature (22 ± 2 °C) with ad libitum supply of standard chow diets and drinking water for one week prior to the experimental treatment in accordance with the Guide for the Care and Use of Laboratory Animals (Institute of Laboratory Animal Resources Commission on Life Sciences, 2011). Acclimated animals were randomly separated into two groups: scoparone-treated or 6,7-diprenoxycoumarin-treated. Mice were administered indicated dose i.p. All mice were anesthetized with Zoetil (10 mg/ml, 0.05 ml/10 gmbw, i.p.) before blood sampling. The blood samples (approximately 300 µL) were […]
centrifuging at 10,000 rpm for 10 min, the plasma samples were obtained. The plasma (50 µL) was mixed with 150 µL ACN, vortexed, and centrifuged for […], 10 mins and at 4 °C. The supernatant was obtained and 20 µL of sample was subjected to HPLC analysis.
Institute of Laboratory Animal Resources Commission on Life Sciences, National Research Council. In Guide for the Care and Use of Laboratory Animals, 8th ed.; National Academy Press: Washington, DC, 2011.

On to `COc1cc2ccc(=O)oc2cc1OC` [Compound 39, scoparone], for which the “desired plasma concentration (10 μM) reached” value is reported as “can be achieved”. Also, for the setting “Table S1, Study 1 mouse 1, dose given 0.2 mg i.p., 10 min”, the Blood concentration, Cal. Conc. stood at 410 ng/mL. The molecule further came in with a Blood concentration, Cal. Conc. (Table S1, Study 1 mouse 2, dose given 0.2 mg i.p., 60 min) of 260 ng/mL. The molecule also came in with a Blood concentration, Cal. Conc. (Table S1, Study 1 mouse 3, dose given 0.2 mg i.p., 315 min) of 40 ng/mL. For the same molecule, the Blood concentration, Cal. Conc. (Table S1, Study 2 mouse 3, dose given 0.5 mg i.p., 320 min) worked out at 40 ng/mL.
With `CC(C)=CCOc1cc2ccc(=O)oc2cc1OCC=C(C)C` [Compound 50, 6,7-diprenoxycoumarin], the “desired plasma concentration (10 μM) reached” value is reported as “cannot be obtained”. Moreover, the Blood concentration, Cal. Conc. (Table S2, Study 1 mouse 1, dose given 0.36 mg i.p., 10 min) was determined as 560 ng/mL. For the setting “Table S2, Study 1 mouse 2, dose given 0.36 mg i.p., 60 min”, this molecule yielded a Blood concentration, Cal. Conc. of 80 ng/mL. Where the note is “Table S2, Study 1 mouse 3, dose given 0.36 mg i.p., 110 min”, this molecule had a Blood concentration, Cal. Conc. of 70 ng/mL. The molecule further yielded a Blood concentration, Cal. Conc. (Table S2, Study 1 mouse 4, dose given 0.36 mg i.p., 360 min) of 40 ng/mL. The Blood concentration, Cal. Conc. (Table S2, Study 2 mouse 1, dose given 0.5 mg i.p., 11 min) came out at 310 ng/mL. Also, the Blood concentration, Cal. Conc. (Table S2, Study 2 mouse 2, dose given 0.5 mg i.p., 60 min) is 120 ng/mL. In addition, the Blood concentration, Cal. Conc. (Table S2, Study 2 mouse 3, dose given 0.5 mg i.p., 318 min) was 27 ng/mL.

The record behind these values is PMC7796031, “Studies of Coumarin Derivatives for Constitutive Androstane Receptor (CAR) Activation” (Molecules, 2020).
